Measured values from article PMC9851200, “Multiparameter phenotypic screening for endogenous TFEB and TFE3 translocation identifies novel chemical series modulating lysosome function” (Autophagy, 2022).
Read-outs that look alike come from different tables or passages of the source.

Assays:
PRKD1 [1] = molecular target: T1, PRKD1 (Homo sapiens, UniProt Q15139); details: cited from earlier work
T1 sequence (Q15139 1-912): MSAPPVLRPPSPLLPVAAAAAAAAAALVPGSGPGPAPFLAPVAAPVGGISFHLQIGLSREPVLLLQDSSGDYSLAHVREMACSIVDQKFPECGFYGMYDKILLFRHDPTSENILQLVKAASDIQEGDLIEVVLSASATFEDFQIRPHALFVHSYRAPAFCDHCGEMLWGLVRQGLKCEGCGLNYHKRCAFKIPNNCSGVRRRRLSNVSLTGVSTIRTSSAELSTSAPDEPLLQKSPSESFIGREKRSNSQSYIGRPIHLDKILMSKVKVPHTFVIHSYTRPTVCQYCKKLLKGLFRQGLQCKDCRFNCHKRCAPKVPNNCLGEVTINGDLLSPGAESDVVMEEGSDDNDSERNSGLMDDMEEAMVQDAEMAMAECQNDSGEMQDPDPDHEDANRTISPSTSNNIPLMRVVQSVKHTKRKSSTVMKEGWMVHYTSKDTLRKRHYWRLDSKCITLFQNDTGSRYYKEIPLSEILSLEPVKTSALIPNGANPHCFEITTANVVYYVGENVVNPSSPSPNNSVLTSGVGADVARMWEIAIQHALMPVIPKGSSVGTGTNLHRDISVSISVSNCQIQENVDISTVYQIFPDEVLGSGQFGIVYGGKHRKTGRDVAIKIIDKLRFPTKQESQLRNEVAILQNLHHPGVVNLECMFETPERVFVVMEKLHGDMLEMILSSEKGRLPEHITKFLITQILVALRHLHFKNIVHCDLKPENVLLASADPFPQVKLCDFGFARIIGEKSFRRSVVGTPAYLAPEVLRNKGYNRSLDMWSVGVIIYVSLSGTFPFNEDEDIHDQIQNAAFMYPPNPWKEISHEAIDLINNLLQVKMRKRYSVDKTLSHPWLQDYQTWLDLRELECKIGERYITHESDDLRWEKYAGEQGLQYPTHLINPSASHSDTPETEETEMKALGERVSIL

PRKD2 [2] = molecular target: T2, PRKD2 (Homo sapiens, UniProt Q9BZL6); details: read-out: IC50 PRKD2; cited from earlier work
T2 sequence (Q9BZL6 1-878): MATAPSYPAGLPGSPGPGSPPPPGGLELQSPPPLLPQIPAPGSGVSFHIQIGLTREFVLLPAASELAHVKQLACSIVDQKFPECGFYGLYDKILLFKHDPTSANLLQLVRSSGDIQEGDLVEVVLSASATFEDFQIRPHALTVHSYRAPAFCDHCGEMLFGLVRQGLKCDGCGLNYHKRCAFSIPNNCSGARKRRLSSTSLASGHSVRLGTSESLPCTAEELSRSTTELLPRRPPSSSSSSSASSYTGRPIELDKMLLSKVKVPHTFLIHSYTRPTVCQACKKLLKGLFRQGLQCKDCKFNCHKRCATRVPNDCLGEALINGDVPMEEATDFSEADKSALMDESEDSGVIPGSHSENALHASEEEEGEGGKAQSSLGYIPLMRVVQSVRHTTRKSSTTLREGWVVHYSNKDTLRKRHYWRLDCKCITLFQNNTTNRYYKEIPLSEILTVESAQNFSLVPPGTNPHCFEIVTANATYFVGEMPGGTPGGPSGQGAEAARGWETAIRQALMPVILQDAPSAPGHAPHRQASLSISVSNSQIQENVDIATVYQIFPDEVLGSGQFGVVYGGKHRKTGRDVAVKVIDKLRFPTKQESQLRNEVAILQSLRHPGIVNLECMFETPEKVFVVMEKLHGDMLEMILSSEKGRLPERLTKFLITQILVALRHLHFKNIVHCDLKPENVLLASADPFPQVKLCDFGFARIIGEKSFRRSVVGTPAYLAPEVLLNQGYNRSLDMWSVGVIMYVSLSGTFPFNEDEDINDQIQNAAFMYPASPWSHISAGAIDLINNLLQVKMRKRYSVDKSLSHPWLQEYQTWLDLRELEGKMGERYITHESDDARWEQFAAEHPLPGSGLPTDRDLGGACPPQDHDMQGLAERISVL

PRKD2 [3] = molecular target: T2, PRKD2; details: cited from earlier work
PRKD1 [4] = molecular target: T1, PRKD1; details: cited from earlier work; remark: listed apart in the source
CDC42BPG/DMPK2 = CDC42BPG/DMPK2 (Homo sapiens, UniProt Q6DT37); details: cited from earlier work
CDC42BPB/MRCKB = CDC42BPB/MRCKB (Homo sapiens, UniProt Q9Y5S2); details: cited from earlier work
CIT = CIT (Homo sapiens, UniProt O14578); details: cited from earlier work
CIT, sequence (O14578 whole entry): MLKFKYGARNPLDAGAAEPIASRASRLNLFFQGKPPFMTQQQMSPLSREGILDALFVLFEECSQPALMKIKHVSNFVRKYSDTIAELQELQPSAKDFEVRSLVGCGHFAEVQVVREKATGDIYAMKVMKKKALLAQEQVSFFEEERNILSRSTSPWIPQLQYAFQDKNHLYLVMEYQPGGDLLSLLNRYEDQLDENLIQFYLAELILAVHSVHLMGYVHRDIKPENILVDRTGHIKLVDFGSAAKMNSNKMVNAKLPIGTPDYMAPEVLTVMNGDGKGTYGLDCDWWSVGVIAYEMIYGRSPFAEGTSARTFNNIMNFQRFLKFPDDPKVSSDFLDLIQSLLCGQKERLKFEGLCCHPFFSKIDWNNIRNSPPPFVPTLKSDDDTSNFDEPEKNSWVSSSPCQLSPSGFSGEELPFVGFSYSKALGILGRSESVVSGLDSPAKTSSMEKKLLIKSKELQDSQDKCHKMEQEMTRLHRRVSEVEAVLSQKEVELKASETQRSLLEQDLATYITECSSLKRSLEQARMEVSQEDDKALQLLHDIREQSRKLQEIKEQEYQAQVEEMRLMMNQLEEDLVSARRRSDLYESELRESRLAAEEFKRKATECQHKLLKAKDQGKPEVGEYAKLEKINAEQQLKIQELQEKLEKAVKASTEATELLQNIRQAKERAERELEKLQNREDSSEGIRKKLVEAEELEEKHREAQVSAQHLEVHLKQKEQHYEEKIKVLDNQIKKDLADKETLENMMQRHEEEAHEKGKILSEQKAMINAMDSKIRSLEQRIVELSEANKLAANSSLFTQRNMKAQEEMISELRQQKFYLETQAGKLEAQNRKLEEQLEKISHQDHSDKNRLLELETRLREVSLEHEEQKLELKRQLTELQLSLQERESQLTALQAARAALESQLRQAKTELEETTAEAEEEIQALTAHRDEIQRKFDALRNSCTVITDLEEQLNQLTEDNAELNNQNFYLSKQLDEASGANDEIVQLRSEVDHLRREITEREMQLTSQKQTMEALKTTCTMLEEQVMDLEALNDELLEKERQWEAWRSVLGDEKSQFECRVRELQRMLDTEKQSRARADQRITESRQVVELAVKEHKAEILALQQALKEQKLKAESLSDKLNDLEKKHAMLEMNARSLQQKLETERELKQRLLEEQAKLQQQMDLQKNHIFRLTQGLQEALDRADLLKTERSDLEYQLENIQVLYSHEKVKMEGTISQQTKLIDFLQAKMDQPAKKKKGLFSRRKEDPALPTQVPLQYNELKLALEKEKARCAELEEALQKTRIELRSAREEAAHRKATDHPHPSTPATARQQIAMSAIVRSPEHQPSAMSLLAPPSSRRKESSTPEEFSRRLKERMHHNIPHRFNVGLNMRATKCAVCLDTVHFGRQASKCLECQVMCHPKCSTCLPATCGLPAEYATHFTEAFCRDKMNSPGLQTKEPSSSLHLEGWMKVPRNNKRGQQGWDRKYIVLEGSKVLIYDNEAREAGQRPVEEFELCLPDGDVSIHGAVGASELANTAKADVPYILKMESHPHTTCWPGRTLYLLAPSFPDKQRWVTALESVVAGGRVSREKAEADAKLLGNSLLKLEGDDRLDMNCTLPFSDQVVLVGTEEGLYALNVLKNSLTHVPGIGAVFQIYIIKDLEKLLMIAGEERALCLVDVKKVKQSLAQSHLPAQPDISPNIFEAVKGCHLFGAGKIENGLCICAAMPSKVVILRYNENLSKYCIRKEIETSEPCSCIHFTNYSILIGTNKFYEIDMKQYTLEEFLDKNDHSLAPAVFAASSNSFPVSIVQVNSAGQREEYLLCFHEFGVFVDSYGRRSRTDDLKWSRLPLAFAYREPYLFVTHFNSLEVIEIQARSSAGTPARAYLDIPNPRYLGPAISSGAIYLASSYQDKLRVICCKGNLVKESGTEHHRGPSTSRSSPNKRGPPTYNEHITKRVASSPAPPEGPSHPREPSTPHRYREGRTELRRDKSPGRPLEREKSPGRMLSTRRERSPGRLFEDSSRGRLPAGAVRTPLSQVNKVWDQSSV

ACVR1B = molecular target: T3, ACVR1B (Homo sapiens, UniProt P36896); details: cited from earlier work
T3 sequence (P36896 24-505): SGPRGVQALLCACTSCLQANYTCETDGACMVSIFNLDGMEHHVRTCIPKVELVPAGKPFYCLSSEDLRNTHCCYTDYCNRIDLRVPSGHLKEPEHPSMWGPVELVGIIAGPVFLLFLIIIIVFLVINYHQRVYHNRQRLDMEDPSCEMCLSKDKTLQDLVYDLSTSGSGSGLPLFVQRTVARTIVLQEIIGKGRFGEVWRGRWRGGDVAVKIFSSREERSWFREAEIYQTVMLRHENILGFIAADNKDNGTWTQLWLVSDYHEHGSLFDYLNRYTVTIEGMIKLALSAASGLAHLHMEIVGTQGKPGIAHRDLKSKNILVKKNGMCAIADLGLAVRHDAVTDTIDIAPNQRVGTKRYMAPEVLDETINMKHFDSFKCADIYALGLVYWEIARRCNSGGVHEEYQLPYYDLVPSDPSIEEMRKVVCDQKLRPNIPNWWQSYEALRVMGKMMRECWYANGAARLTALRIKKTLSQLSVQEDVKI

TGFBR2 = TGFBR2 (Homo sapiens, UniProt P37173); details: cited from earlier work
TGFBR2, sequence (P37173 23-567): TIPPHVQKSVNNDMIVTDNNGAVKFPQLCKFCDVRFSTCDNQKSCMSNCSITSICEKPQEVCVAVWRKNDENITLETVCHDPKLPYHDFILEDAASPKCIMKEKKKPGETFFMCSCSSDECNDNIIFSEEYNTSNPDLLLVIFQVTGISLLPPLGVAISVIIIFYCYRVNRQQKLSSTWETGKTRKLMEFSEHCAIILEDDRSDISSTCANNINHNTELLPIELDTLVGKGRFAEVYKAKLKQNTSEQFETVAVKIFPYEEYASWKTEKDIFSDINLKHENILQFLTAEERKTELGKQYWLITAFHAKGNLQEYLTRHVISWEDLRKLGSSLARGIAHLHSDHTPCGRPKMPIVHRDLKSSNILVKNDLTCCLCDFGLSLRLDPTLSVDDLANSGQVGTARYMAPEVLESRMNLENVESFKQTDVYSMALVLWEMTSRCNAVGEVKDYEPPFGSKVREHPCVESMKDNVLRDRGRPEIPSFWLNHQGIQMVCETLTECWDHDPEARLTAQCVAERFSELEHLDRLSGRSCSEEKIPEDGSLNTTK

CSNK1E = CSNK1E (Homo sapiens, UniProt P49674); details: cited from earlier work
CSNK1E, sequence (P49674 whole entry): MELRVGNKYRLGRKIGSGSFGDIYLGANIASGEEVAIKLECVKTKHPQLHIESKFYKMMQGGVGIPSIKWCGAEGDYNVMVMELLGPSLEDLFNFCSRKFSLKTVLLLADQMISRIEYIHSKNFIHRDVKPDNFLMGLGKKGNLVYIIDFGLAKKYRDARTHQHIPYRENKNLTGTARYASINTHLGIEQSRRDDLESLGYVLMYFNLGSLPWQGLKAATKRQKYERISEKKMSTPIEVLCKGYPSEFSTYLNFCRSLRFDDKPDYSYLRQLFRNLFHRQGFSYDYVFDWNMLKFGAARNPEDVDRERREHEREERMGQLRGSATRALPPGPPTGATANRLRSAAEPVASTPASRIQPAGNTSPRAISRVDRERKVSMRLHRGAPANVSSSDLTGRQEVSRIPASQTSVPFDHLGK

PRKD3 = molecular target: T4, PRKD3 (Homo sapiens, UniProt O94806); details: cited from earlier work
T4 sequence (O94806 1-890): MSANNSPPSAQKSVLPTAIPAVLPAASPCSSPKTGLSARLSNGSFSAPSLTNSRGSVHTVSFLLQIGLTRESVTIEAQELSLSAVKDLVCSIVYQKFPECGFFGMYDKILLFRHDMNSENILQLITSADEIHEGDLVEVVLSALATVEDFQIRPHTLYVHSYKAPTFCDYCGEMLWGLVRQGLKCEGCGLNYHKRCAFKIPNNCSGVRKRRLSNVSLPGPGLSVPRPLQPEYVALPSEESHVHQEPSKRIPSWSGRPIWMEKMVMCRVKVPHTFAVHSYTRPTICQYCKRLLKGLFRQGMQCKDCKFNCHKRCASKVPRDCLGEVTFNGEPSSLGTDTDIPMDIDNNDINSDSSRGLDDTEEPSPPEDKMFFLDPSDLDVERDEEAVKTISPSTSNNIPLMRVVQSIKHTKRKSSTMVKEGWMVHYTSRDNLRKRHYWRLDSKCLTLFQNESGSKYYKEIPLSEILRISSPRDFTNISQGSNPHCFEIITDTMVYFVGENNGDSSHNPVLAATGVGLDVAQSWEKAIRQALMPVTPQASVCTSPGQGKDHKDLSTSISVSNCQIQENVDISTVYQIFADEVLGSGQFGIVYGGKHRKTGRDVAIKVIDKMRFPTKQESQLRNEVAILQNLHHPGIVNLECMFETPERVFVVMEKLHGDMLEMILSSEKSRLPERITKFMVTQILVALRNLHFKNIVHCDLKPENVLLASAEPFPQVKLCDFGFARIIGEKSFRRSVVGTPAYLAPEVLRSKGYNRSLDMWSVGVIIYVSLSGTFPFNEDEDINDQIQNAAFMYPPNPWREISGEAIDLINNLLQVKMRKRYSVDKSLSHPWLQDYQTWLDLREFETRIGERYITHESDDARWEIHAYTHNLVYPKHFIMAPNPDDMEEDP

JAK1(JH2) = molecular target: T5, JAK1(JH2) (Homo sapiens, UniProt P23458); details: cited from earlier work
T5 construct: JAK1(JH2)

CSNK1D = CSNK1D (Homo sapiens, UniProt P48730); details: cited from earlier work
PIKFYVE = PIKFYVE (Homo sapiens, UniProt Q9Y2I7); details: cited from earlier work
PIKFYVE, sequence (Q9Y2I7 whole entry): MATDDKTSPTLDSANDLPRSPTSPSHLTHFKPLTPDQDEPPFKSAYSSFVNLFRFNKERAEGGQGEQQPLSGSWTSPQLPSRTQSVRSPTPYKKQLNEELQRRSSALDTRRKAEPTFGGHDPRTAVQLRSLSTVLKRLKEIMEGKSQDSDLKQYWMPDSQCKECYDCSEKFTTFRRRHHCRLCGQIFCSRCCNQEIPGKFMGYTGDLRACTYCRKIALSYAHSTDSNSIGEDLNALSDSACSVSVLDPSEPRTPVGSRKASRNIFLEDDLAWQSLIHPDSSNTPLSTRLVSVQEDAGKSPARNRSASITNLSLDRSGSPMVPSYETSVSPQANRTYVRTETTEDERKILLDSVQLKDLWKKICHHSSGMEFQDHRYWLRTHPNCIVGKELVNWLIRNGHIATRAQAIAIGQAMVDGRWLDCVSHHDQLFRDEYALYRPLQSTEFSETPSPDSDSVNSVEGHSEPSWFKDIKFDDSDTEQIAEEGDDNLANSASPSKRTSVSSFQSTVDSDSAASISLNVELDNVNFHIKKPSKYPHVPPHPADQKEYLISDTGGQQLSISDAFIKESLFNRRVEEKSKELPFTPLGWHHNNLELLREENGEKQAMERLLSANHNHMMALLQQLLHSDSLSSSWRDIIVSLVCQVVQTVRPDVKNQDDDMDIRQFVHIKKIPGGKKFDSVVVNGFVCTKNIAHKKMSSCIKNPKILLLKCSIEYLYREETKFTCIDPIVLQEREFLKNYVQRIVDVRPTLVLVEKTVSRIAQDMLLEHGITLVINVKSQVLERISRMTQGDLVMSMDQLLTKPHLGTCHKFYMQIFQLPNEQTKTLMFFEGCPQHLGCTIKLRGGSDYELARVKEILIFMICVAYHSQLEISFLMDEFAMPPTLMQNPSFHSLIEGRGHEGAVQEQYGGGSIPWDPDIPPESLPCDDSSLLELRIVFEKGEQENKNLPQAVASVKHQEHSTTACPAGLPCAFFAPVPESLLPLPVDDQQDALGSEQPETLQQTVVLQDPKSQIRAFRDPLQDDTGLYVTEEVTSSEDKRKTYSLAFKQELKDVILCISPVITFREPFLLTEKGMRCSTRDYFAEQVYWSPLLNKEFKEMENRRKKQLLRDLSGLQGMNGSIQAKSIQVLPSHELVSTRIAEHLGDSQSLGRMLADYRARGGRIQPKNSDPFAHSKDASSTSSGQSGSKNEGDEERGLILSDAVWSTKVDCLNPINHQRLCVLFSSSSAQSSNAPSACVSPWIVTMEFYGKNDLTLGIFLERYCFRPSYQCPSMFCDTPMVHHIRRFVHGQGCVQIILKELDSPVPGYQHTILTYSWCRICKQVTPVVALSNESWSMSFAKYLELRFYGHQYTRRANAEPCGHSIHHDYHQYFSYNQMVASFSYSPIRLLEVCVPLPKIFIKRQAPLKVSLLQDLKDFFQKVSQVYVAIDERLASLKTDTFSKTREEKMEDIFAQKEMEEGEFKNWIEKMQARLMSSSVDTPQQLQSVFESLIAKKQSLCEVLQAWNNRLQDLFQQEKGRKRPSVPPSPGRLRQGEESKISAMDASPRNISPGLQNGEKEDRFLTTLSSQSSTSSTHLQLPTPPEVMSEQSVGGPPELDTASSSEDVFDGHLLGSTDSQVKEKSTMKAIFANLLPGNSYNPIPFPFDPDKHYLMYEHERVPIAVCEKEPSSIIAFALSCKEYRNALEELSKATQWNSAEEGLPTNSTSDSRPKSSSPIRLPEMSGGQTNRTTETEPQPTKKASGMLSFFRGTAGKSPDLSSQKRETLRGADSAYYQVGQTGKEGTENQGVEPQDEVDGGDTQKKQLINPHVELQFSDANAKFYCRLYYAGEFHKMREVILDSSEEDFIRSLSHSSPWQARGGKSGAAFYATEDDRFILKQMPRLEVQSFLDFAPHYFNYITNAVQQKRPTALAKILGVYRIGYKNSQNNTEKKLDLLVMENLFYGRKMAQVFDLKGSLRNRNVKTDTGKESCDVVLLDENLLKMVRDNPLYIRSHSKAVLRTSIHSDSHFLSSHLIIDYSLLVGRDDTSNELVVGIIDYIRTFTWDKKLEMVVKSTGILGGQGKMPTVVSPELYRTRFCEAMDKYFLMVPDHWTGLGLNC

BMPR1B = BMPR1B (Homo sapiens, UniProt O00238); details: cited from earlier work
MTOR = MTOR (Homo sapiens, UniProt P42345); details: cited from earlier work
endogenous TFE3 = experiment: TFE3 nuclear translocation, immunocytochemistry high-content imaging; format: cell-based; details: for EC50 / Best-Fit Values Span: 24 h, SH-SY5Y; for EC50: read-out: Best-Fit Values EC50 (converted); for Summary: activity in TFE3 assays compared with original NK-140, OT activity; for Best-Fit Values Span: TFE3 assay concentration response
TGFBR1 = molecular target: T6, TGFBR1 (Homo sapiens, UniProt P36897); experiment: TGFBR1 binding KD (Table S3); details: read-out: TGFBR1 KD
T6 sequence (P36897 34-503): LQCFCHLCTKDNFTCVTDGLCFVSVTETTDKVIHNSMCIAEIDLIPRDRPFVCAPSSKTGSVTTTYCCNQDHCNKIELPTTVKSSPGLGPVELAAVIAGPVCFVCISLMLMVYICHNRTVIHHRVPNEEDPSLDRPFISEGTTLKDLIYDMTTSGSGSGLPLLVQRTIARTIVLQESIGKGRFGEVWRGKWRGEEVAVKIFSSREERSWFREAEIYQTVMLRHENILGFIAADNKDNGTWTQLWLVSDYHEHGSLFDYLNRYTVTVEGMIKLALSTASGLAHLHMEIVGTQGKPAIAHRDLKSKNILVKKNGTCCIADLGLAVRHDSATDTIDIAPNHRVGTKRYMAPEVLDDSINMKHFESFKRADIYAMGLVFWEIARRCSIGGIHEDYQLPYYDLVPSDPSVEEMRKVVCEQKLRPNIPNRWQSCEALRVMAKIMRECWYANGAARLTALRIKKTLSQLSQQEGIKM
Text: (§1) Supplement KAUP_A_2095834_SM5251.zip/Supplementary Tables R7.xlsx, sheet "Table S3 - Analogues"

PRKD1 [5] = molecular target: T1, PRKD1; experiment: PRKD1 binding KD (Table S3); details: relation sign
Text: as §1

[6] = TFE3 assay, second EC50 of biphasic/bell-shaped fit or OT (off-target) activity, unit inferred

Description for SH-SY5Y cells: Total cell lysis with 5 µL 5% Triton-X 100 (Sigma-Aldrich, T8787) is used as a positive control for the assay and toxicity is expressed as a percentage of luminescence under DMSO conditions.

For CC[C@@H](N)CNc1ccnc(-c2cc(-c3cnn(C)c3)ccc2O)n1.Cl.Cl [CRT0066101, reference compound], the “Cellular toxicity (AK release and nuclear count, in words)” value (SH-SY5Y cells) is given as “pronounced cellular toxicity”, the “Concentrations toxic to cells (reduction in nuclear count and increase in AK signal)” value (SH-SY5Y cells) is given as “above 1 µM” and the IC50 (PRKD1 [1]) is given as 1 nM. The IC50 (PRKD2 [2]) was 2.5 nM.
In the case of Cc1cccc(-c2nc(Nc3ccc4[nH]ncc4c3)c3ccccc3n2)n1 [GW857175], the “KINOMEscan binding PRKD2” value (PRKD2 [3]) is given as 99.9%, the “KINOMEscan binding PRKD1” value (PRKD1 [4]) is given as 99.8% and the “KINOMEscan binding CDC42BPG/DMPK2” value (CDC42BPG/DMPK2) is given as 72%. For the same molecule, the “KINOMEscan binding CDC42BPB/MRCKB” value (CDC42BPB/MRCKB) was 72%, the “KINOMEscan binding CIT” value (CIT) was 9% and the “KINOMEscan binding ACVR1B” value (ACVR1B) was 100%. For the same molecule, the “KINOMEscan binding TGFBR2” value (TGFBR2) was 0%, the “KINOMEscan binding CSNK1E” value (CSNK1E) was 28% and the “KINOMEscan binding PRKD3” value (PRKD3) was 98.1%. For the same molecule, the “KINOMEscan binding JAK1(JH2)” value (JAK1(JH2)) was 83%, the “KINOMEscan binding CSNK1D” value (CSNK1D) was 28% and the “KINOMEscan binding PIKFYVE” value (PIKFYVE) was 85%. The “KINOMEscan binding BMPR1B” value (BMPR1B) was 34% and the “KINOMEscan binding MTOR” value (MTOR) was 0%.
For Cc1cccc(-c2nc(Nc3ccc4nc(C)sc4c3)c3ccccc3n2)n1 [NK165], the EC50 (endogenous TFE3; [6]) was 3.8 µM, the EC50 (endogenous TFE3; TFE3 assay, µM) was 0.58 µM and the Summary (endogenous TFE3) was “Stronger, Some OT activity”. For the same molecule, the Kd (TGFBR1) was over 10000 nM.
With COc1ccc(Nc2nc(-c3cccc(C)n3)nc3ccccc23)cc1 [NK170] the EC50 (endogenous TFE3; Homo sapiens) was 0.85 µM, the EC50 (endogenous TFE3; Homo sapiens, TFE3 assay, µM) was 0.83 µM and the Summary (endogenous TFE3) was “Weaker, Strong OT activity”. For the same molecule, the Kd (PRKD1 [5]) was 780 nM.
With Cc1cccc(-c2nc(Nc3ccc4ccsc4c3)c3ccccc3n2)n1 [NK219] the EC50 (endogenous TFE3; Homo sapiens) was 2.51 µM, the EC50 (endogenous TFE3; Homo sapiens, TFE3 assay, µM) was 2.5 µM and the “Best-Fit Values Span” value (endogenous TFE3) was 44.67. For the same molecule, the Summary (endogenous TFE3) was “Weaker, Strong OT activity” and the Kd (PRKD1 [5]) was 650 nM.
With Cc1cccc(-c2nc(Oc3ccc4scnc4c3)c3ccccc3n2)n1 [NK220] the “Best-Fit Values Span” value (endogenous TFE3) was 0.80, the Summary (endogenous TFE3) was “Inactive” and the Kd (TGFBR1) was over 10000 nM.
With Cc1cccc(-c2nc(Nc3ccc4nnn(C)c4c3)c3ccccc3n2)n1 [NK222] the EC50 (endogenous TFE3; [6]) was 3.12 µM, the EC50 (endogenous TFE3; TFE3 assay, µM) was 0.22 µM and the Summary (endogenous TFE3) was “Stronger, Some OT activity”. For the same molecule, the Kd (TGFBR1) was over 10000 nM.
For Cc1cccc(-c2nc(Nc3ccc4nn(C)nc4c3)c3ccccc3n2)n1 [NK223], the “Best-Fit Values Span” value (endogenous TFE3) was 88.41, the EC50 (endogenous TFE3; [6]) was 1.34 µM and the Summary (endogenous TFE3) was “Only OT activity”. The Kd (TGFBR1) was over 10000 nM.
